Earlier results, collected in paper PMC3792011 (Clinical Pharmacology : Advances and Applications, 2013).
Several values for one entry are separate records, joined by “and”; a condition that tells them apart may be missing. Identical values can stand only once.

How the values were obtained:
[1] = treatment guidelines
[2] = steady state; bibliographic data

In the case of `COC(=O)N[C@H](C(=O)N[C@@H](Cc1ccccc1)[C@@H](O)CN(Cc1ccc(-c2ccccn2)cc1)NC(=O)[C@@H](NC(=O)OC)C(C)(C)C)C(C)(C)C` [ATZ, Atazanavir], the “Recommended upper limit of plasma concentration (risk of hyperbilirubinemia)” value [1] is given as less than 1.1 µmol/L, the “AUC, geometric mean (CV %)” value [2] is given as 65.4 (0.1) μmol · h/L and the “AUC, mean (SD)” value [2] is given as 76.4 (50.1) μmol · h/L. The “Cmax_SS_ATZ, geometric mean (CV %)” value [2] was 6.2 (0.1) μmol/L, the “Cmax_SS_ATZ, mean (SD)” value [2] was 7.4 (4.3) μmol/L and the “Cmin_SS_ATZ, geometric mean (CV %)” value [2] was 0.9 μmol/L and 0.9 (0.1) μmol/L. For the same compound, the “Cmin_SS_ATZ, mean (SD)” value [2] was 1.2 (1.2) μmol/L and the “T-half, mean (SD)” value [2] was 8.6 (2.3) h.
